Test system: H2122 human lung cancer line, m855 mouse GEM line, diffuse large B-cell lymphoma and Burkitt's lymphoma cell lines
Experiment: Combination with JQ1, cell viability isobolograms (cell line not stated for the result)
Format: cell-based
Settings: for Effect on JQ1 activity at doses where the agent alone has no effect: in combination with JQ1, doses where they alone have no effect
Method: Compounds were profiled against H2122 human lung cancer line and m855 mouse GEM line containing p53/kRas mutations. Compounds were also profiled against diffuse large B-cell lymphoma cell lines OCI-Ly1, OCI-Ly3, OCI-Ly4, OCI-Ly7, S-DHL4, SU-DHL6, SU-DHL7, HBL1, K422, U2932 and Toledo, and against Burkitt's lymphoma cell lines Raji and Ca46.
Using a Biotek EL406, 50 uL of cell media containing 20-60,000 cells/ml was distributed into white 384-well Nunc plates (Thermo). Suspension cells then received compound immediately while adherent cells lines were given one hour to reattach to the surface of the plate prior to compound addition. The compounds to be tested were dissolved in DMSO and arrayed on 384 well compound storage plates (Greiner). Each compound plate received one compound in 5 point dose response approximately centered on the IC50 of the given compound for a given cell line.
After addition of compound, cell plates were incubated for 72 hr in a […] incubator. Cell viability was evaluated using ATPlite (Perkin Elmer) following manufacturer protocols. Data was analyzed in CalcuSyn utilizing the median effect principle of presented by Chou-Talalay and visualized using GraphPad Prism Software. Key parameters assessed were combination index and dose reduction index.
Points below the 1 to 1 line connecting the X and Y axes are ‘synergistic’, points near the line are ‘additive’, and points above it are antagonistic.

SMILES | Type of response when administered in combination with JQ1 (isobologram) | Effect on JQ1 activity at doses where the agent alone has no effect
Cn1c(=O)n(-c2ccc(C(C)(C)C#N)cc2)c2c3cc(-c4cnc5ccccc5c4)ccc3ncc21 [BEZ235] | additive effects | increased the effect of JQ1
NC1(c2ccc(-c3nc4ccn5c(=O)[nH]nc5c4cc3-c3ccccc3)cc2)CCC1 [MK2206] | synergistic response | 
C[C@@H](Oc1cc(-c2cnn(C3CCNCC3)c2)cnc1N)c1c(Cl)ccc(F)c1Cl [crizotinib] | synergistic response | 
COc1cc([C@@H]2c3cc4c(cc3[C@@H](O[C@@H]3O[C@@H]5CO[C@@H](C)O[C@H]5[C@H](O)[C@H]3O)[C@H]3COC(=O)[C@H]23)OCO4)cc(OC)c1O [etoposide] | synergistic response | 
CO[C@H]1C[C@@H]2CC[C@@H](C)[C@@](O)(O2)C(=O)C(=O)N2CCCC[C@H]2C(=O)O[C@H]([C@H](C)C[C@@H]2CC[C@@H](OC(=O)C(C)(CO)CO)[C@H](OC)C2)CC(=O)[C@H](C)/C=C(\C)[C@@H](O)[C@@H](OC)C(=O)[C@H](C)C[C@H](C)/C=C/C=C/C=C/1C [temsirolimus] | additive effects | increased the effect of JQ1

From patent US11446309B2, “Combination therapy for cancer using bromodomain and extra-terminal (BET) protein inhibitors” (Dana-Farber Cancer Institute, Inc., priority 2013, dated 2022)
